From patent US20100022457A1 (Bristol-Myers Squibb Company, priority 2006, published 2010)
Where a SMILES comes first, the peptide text is derived from it. [ ]: non-standard residue; d: D form. Ala(6-(2-MePh)pyridin-3-yl) = Cc1ccccc1-c1ccc(C[C@H](N)C(=O)O)cn1; Bip(2'-Et-4'-OMe) = CCc1cc(OC)ccc1-c1ccc(C[C@H](N)C(=O)O)cc1; αMePhe(2-F) = C[C@](N)(Cc1ccccc1F)C(=O)O; Aib = CC(C)(N)C(=O)O

Experiment: Solubility of the compound of SEQ ID NO:9 in the presence of Zn(II) / Zn adduct
Format: physicochemical
Details: pH 6.8, 50 mM phosphate buffer
Procedure: The concentration of the compound of SEQ ID NO:9 was analyzed by a Waters HPLC system (Waters 2690 Separations Module and Waters 996 Photodiode Array Detector). A gradient method was used where solvent A is 0.05% trifluoroacetic acid (TFA, Sigma) in water, and solvent B is 0.05% TFA in acetone nitrile (ACN, Sigma). Light at a wavelength of 220 nm was used to detect the absorption of the compound of SEQ ID NO:9.
Once the Zn/Compound of SEQ ID NO:9 adduct was formed, formulation development studies were conducted in order to evaluate the solubility of the compound of SEQ ID NO:9 in the presence of Zn(II). An excess amount of the compound of SEQ ID NO:9 was suspended in pH 6.8, 50 mM phosphate buffer. The suspension was then placed on an orbital shaker (Model, 100 RPM) at ambient temperature for 12 hours. The suspension was then centrifuged (Model, speed) and the saturated the clear supernatant of the compound of SEQ ID NO:9 was collected into 10 ml centrifuge tubes. A predetermined amount of zinc acetate solution (50 mM, pH 6.8 phosphate buffer) was added into the saturated solution and then precipitated. The concentration of the compound of SEQ ID NO:9 in solution was obtained by centrifuging the suspension and analyzing the clear supernatants by HPLC. […]

CCc1cc(OC)ccc1-c1ccc(C[C@H](NC(=O)[C@H](CC(=O)O)NC(=O)[C@H](CO)NC(=O)[C@@H](NC(=O)[C@](C)(Cc2ccccc2F)NC(=O)[C@@H](NC(=O)CNC(=O)[C@H](CCC(=O)O)NC(=O)C(C)(C)NC(=O)[C@@H](N)Cc2c[nH]cn2)[C@@H](C)O)[C@@H](C)O)C(=O)N[C@@H](Cc2ccc(-c3ccccc3C)nc2)C(N)=O)cc1 [SEQ ID NO: 9] (H-H[Aib]EGT[αMePhe(2-F)]TSD[Bip(2'-Et-4'-OMe)][Ala(6-(2-MePh)pyridin-3-yl)]-NH2)
apparent solubility with addition of Zn (II): continued to decrease until below the detection limit of HPLC | solubility at 12 h (read-out: concentration of saturated solution (solubility)): 17 µg/mL
